# According to patent US6379676B2, “Enhancing immune response in animals” (priority 1999, dated 2002):
# Test system: E. coli
# Method: The term “resistant to contamination by pathogenic bacteria” means that a challenge with 1000 colony forming units (CFU) per gram of feed results in the death of substantially all the bacteria within 24 to 72 hours. In particular, the term “resistance to contamination by Salmonella or E. coli” means that a challenge with 1000 CFUs of Salmonella or E. coli per gram of feed results in 1 CFU or less per 25 grams of feed after 24 hours incubation at 25° C.
# One set of samples was treated with a coarse spray (270 microns) at 1.8 gal/hr. (6.81 liters/hr.) and another was treated with fine mist (43 microns) at 25.5 gal/hr. (96.5 liters/hr.). Each sample of 500 grams was challenged with 20 ml of a liquid inoculum of Escherishia coli (>10^6 CFU/ml) one week after treatment.
smiles,measurement,setting,value
C=O [formaldehyde],time finished feed resists contamination by E. coli,"2 lbs. (0.91 kg) dry wt. per metric ton, 2.0% CV, 1000 CFUs/gram of feed",about 60 days
same,resistance as measured by challenge with E. coli,"4 lbs. (1.81 kg) dry wt. per metric ton of finished feed, 7% CV, 1000 CFU/gram of feed",about 30 days
